Reference: patent publication US8952025B2, “Multifunctional radical quenchers and their uses” (Arizona Board of Regents, A Body Corporate of the State of …, priority 2010, dated 2015)
Entries after “also recorded” stand apart in the source; their conditions may differ.

Experiments:
CEM cells [1] = assay: Reactive oxygen species (ROS) assay, DCFH-DA, DEM-treated cells; type: cell-based, human; conditions: for protection against ROS production (DCF fluorescence): 5 μM, pretreatment 4 or 24 h; for suppression of ROS (DCFH-DA): 0.25 μM for 15 hours, DEM 40 min, CCRF-CEM cells
From the text: Cellular ROS production can be monitored using 2′,7′-dichlorodihydrofluorescein diacetate (DCFH-DA) (LeBel et al. (1992) Chem. Res. Toxicol. 5, 227-231) (Molecular Probes, Eugene, Oreg., USA), a membrane permeable and oxidant-sensitive fluorescent dye. DCFH-DA is a non-fluorescent derivative of fluorescein that emits fluorescence after being oxidized by hydrogen peroxide and other ROS. The emitted fluorescence is directly proportional to the concentration of hydrogen peroxide. DCFH-DA is nonionic and nonpolar and is easily taken up by cells. Once inside the cell, DCFH-DA is hydrolyzed by cellular esterases to non-fluorescent DCFH which traps the dye in the cell. In the presence of ROS including hydrogen peroxide, DCFH is oxidized to the highly fluorescent compound dichlorofluorescein (DCF). The intracellular DCF fluorescence is used as an index of cellular ROS production.
Cellular oxidative stress was induced by pharmacological depletion of glutathione (GSH) using the chemical diethylmaleate (DEM). ROS production was assessed by monitoring DCF fluorescence. Leukemic CEM cells (ATCC®, catalogue number CRL-2264) were cultured in RPMI (GIBCO, Grand island, N.Y., USA) with 10% FCS, 2 mM glutamine (HyClone, South Logan, Utah, USA) and 1% penicillin-streptomycin mix antibiotics (Cellgro, Manassan, Va., USA) supplements. Cells were maintained in the log phase at a concentration of between 1×10^5 and 1×10^6 cells/mL. CEM cells (1×10^6 cell/mL) were plated (1 mL) in twelve well plate and treated with the invention compounds (final concentration 1 and 5 μM), and incubated for two hours at 37° C., 5% CO2. The compounds tested were prepared by first making stock solutions (2.5 mM) in dimethylsulfoxide (DMSO). Cells were treated with 5 mM DEM for 30 minutes and collected by centrifugation at 300×g for 3 min and then washed twice with Hanks' Balanced Salt Solution (HSSB) buffer (Sigma, St. Louis, Mo. USA). Cells were resuspended in HSSB buffer+10 mM glucose and incubated at 37° C. in the dark for 20 min with 10 μM DCFH-DA. Cells were collected by centrifugation at 300×g for 3 min and then washed twice with HSSB buffer. The samples were analyzed immediately by flow cytometry (Becton-Dickinson FACS Caliber), (Cell Quest software, BD Biosciences) using 488 nm excitation laser and FL1-H channel 538 nm emission filter. In each analysis, 10,000 events were recorded after cell debris were electronically gated out. Results obtained were verified by repeating experiments N=3 independent experiments. Authentic hydrogen peroxide was used as a positive control.

CEM cells [2] = assay: Trypan blue cell viability assay, DEM-treated cells; type: cell-based, human; conditions: overnight incubation, then 5 mM DEM, 3 h
Protocol: Cell viability determined by trypan blue exclusion assay: This technique was used to assess the cytoprotective effects of the invention compounds in cultured cells pharmacologically treated to induce cell death by GSH depletion. DEM was used to deplete cellular GSH and induce oxidative stress. The viability of DEM-treated CEM cells was determined by their ability to exclude the dye trypan blue. Viable cells exclude trypan blue; whereas, non-viable cells take up the dye and stain blue. Briefly, CEM cells were grown in RPMI 1640 medium (GIBCO, Grand island, N.Y., USA) supplemented with 10% fetal calf serum, 2 mM glutamine (HyClone, South Logan, Utah, USA), 1% penicillin-streptomycin mix (Cellgro, Manassan, Va., USA). Cells were seeded at a density of 1×10^6 cells/mL and treated with different concentrations of the invention compounds. Cells were incubated at 37° C. in a humidified atmosphere of 5% CO2 in air for three hours with 5 mM DEM. Cell viability was determined by staining cells with 0.4% trypan blue using a hemacytometer. At least 500 cells were counted for each experimental group. At the time of assay, >95% of DEM-treated cells were trypan blue positive; whereas, in non-DEM treated control cell cultures >95% cells were viable. Cell viability was expressed as the percentage of control. Data are expressed as means±S.E.M (n=3).

Human CEM leukemia cells = assay: Live/Dead Viability/Cytotoxicity flow cytometry assay; type: cell-based; conditions: overnight incubation, then DEM 3 hours
Protocol: Cell viability and cytotoxicity were determined by simultaneous staining live and dead cells using a two-color fluorescence assay, the Live/Dead® Viability/Cytotoxicity Kit (Molecular Probes). This assay is used to measure two recognized parameters of cell viability, intracellular esterase activity and plasma integrity. The membrane-impermeant DNA dye ethidium homodimer-1 (EthD-1) was used to identify dead cells whose plasma membrane integrity was disrupted. The membrane-permeant dye calcein-AM was used to label live cells. It penetrates into the cells where it is metabolized by cytoplasmic esterases and becomes a fluorescent but membrane-impermeant probe which is retained in viable cells. Human CEM leukemia cells were incubated overnight in RPMI medium (control) and in the presence of test compound and then treated with DEM for 3 hours. Cells were stained with 0.2 μM calcein-AM and 0.4 μM EthD-1. After 15 minutes, flow cytometry analysis was carried out using excitation at 488 nm. The green-fluorescent (539 nm) FL1-H channel, live-cell population appears in the lower right quadrant and the red-fluorescent (585 nm) FL2-H channel dead-cell population appears in the upper left quadrant (FIG. 11). In each analysis, 10,000 events were recorded. Results obtained were verified in three independent experiments.

CEM leukemia cells [3] = assay: C11-BODIPY581/591 oxidation in cell culture (lipid peroxidation); type: cell-based, human; conditions: 2.5 or 1 μM, pretreatment 4 or 24 hours, glutathione depleted
Protocol: Lipid peroxidation in CEM leukemia cells was detected by utilizing the oxidant-sensitive lipophilic probe C11 BODIPY^581/591. Briefly, CEM cells (5×10^5 cell/mL) were treated with the test compounds at final concentrations of 1 and 2.5 μM, and incubated at 37° C. for 4 or 24 h in a humidified atmosphere containing 5% CO2 in air. Cells were treated with 500 nM C11 BODIPY^581/591 in phenol red-free RPMI-1640 media and incubated at 37° C. in the dark for 30 minutes. The cells were washed twice with phosphate buffered saline and oxidative stress was induced with 5 mM DEM in phenol red-free RPMI-1640 media for 90 minutes. Treated cells were collected by centrifugation at 300×g for 3 minutes and then washed twice with phosphate buffered saline. Cells were resuspended in 250 μL of phosphate buffered saline and were analyzed by FACS (FACS Calibur flow cytometer, Becton Dickinson) to monitor the change in intensity of the C11 BODIPY^581/591-green (oxidized) fluorescence signal.

CEM leukemia cells [4] = assay: Mitochondrial membrane potential (Δψm) assay, TMRM, FACS; type: cell-based, human; conditions: pretreatment 0.5, 1 or 2.5 μM overnight, DEM
Protocol: Measurement of Mitochondrial Membrane Potential (Δψm)(FACS). For the determination of Δψm, CEM leukemia cells were pre-treated with or without the test compounds. The cells were treated with 5 mM DEM for 120 minutes, collected by centrifugation at 300×g for 3 minutes and then washed twice with phosphate buffered saline. The cells were re-suspended in HSSB buffer and incubated at 37° C. in the dark for 15 minutes with 250 nM TMRM (a cationic dye which accumulates within mitochondria in accordance with the Δψm Nernst potential). Cells were collected by centrifugation at 300×g for 3 minutes and then washed twice with phosphate buffered saline. The samples were analyzed immediately by flow cytometry using 488 nm excitation laser and the FL2-H channel. The results obtained were verified in three independent experiments. The protonophore FCCP (30 μM) was used to dissipate the chemiosmotic proton gradient (ΔμH^+) and served as a control for loss of Δψm. In each analysis, 10,000 events were recorded.

[5] = C11-BODIPY581/591 oxidation lipid peroxidation assay in liposomes; conditions: 10 mM AAPH, phospholipid liposomes, phosphate buffer, 40° C.
Protocol: To overcome the problem of spectral overlap using cis-parinaric acid, a fluorescence assay for lipid peroxidation using a lipophilic probe belonging to the BODIPY class of fluorescent dyes was used. C11-BODIPY^581/591 (4,4-difluoro-5(4-phenyl-1,3-butadienyl)-4-bora-3a,4a-diaza-s-indacene-3-propionic acid) fluorescence shifts from red to green upon oxidation. C11-BODIPY^581/591 (Molecular Probes, Eugene, Oreg., USA) stock solution concentrations were determined by measuring the absorption of C11-BODIPY^581/591 at 582 nm using a molar extinction coefficient of 140,000 mol^−1 cm^−1(R. P. Haugland, (1999) Handbook of Fluorescent Probes and Research Chemicals, Molecular Probes, Inc., Eugene, Oreg.). The lipid peroxidation inducer 2,2′-Azobis (2-amidino-propane dihydrochloride) (AAPH) and the antioxidant compound α-tocopherol were obtained from Sigma (St. Louis, Mo., USA). Phospholipid bilayers were prepared from 1-stearoyl-2-oleoyl-phosphatidylcholine (SOPC) and 1,2-dilinoleoyl-phosphatidylcholine (DLPC) and were purchased from Avanti® polar lipids, INC (Alabaster, Ala., USA).
Phosphotidylcholine (PC) liposomes were prepared as described before (Guey-Shuang et al. (1982) Lipids. 17, 403-413). Briefly, DLPC (25 mg) and SOPC (25 mg) were dissolved in chloroform and the solvent was removed by nitrogen evaporation (˜2 hours to give a thin film of PC in a round bottom flask. The lipid film was hydrated with 50 mL of 10 mM Tris-HCl (pH 7.4), 100 mM KCl, shaken and sonicated for 15 seconds. The liposomes obtained were filtered several times through 0.2 μM membrane filter.
C11 BODIPY^581/591 was incorporated into liposomes and oxidized by peroxyl radicals derived from the decomposition of AAPH in presence and absence of the compounds. […] Liposomes were pre-incubated for 10 min with 200 nM C11 BODIPY^581/591 to allow their incorporation into the lipid phase of the liposomes. After the addition of AAPH (10 mM) the decay of red fluorescence was followed at λ exc=570 nm, λ em=600 nm. Relative fluorescence units were normalized to 100% intensity. Results obtained were verified by repeating experiments N=3 independent experiments.

SMILES: Cc1nc(N)nc(CCCCCCCCCCO)c1O [Example 10, 2-amino-4-(10-hydroxydecyl)-6-methylpyrimidin-5-ol]
- melting point: 103 to 104 °C

SMILES: Cc1c(C)c2c(c(C)c1O)CCC(C)(C(=O)O)O2 (stereo not shown) [trolox, reference compound]
- protection against ROS production (DCF fluorescence) (CEM cells [1]): no protection
- maintaining cell viability (trypan blue exclusion) (CEM cells [2]): quite ineffective
- maintaining cell viability (Live/Dead kit, flow cytometry) (Human CEM leukemia cells): quite ineffective
- protection against lipid peroxidation in cells (C11-BODIPY581/591 green fluorescence) (CEM leukemia cells [3]): no protection

SMILES: CC(=O)Oc1c(C)nc2c(c1CC[C@](C)(O)CCC[C@H](C)CCC[C@H](C)CCCC(C)C)CCN2C [compound 35, 4-((3R,7R,11R)-3-hydroxy-3,7,11,15-tetramethylhexadecyl)-1,6-dimethyl-2,3-dihydro-1H-pyrrolo[2,3-b]pyridine-5-yl acetate]
- maintaining cell viability (trypan blue exclusion) (CEM cells [2]): both effective in maintaining cell viability following treatment with DEM, with the acetate of compound C being somewhat more effective

SMILES: COc1nc(N(C)C)nc(CCCCCCCCCCO)c1O [Compound D, 2-(dimethylamino)-4-(10-hydroxydecyl)-6-methoxypyrimidin-5-ol]
- suppression of ROS production (DCF fluorescence) (CEM cells [1]; pretreatment 0.5, 1 or 5 μM, DEM): most effective compound in suppressing ROS; also recorded: very effective in suppressing ROS
- maintaining cell viability (trypan blue exclusion) (CEM cells [2]): quite effective in maintaining cell viability following DEM treatment, with D being the most effective; also recorded: superior to idebenone in maintaining the viability of DEM-treated cells
- maintaining mitochondrial membrane potential Δψm (CEM leukemia cells [4]): the most effective in maintaining mitochondrial membrane potential; also recorded: very favorable properties

SMILES: CCCCCCCCCCc1nc(N(C)C)nc(C)c1O [Compound I, 4-decyl-2-(dimethylamino)-6-methylpyrimidin-5-ol]
- suppression of ROS (DCFH-DA) (CEM cells [1]): most effective compounds at suppressing ROS in this assay; also recorded: especially effective
- melting point: 71 to 72 °C

SMILES: Cc1nc2c(c(C)c1O)CCN2C [compound C redox core, 1,4,6-trimethyl-2,3-dihydro-1H-pyrrolo[2,3-b]pyridin-5-ol, reference compound]
- quenching of lipid peroxidation (retention of C11-BODIPY581/591 fluorescence) ([5]; listed as 1,4,6-trimethyl-2,3-dihydro-1H-pyrrolo[2,3-b]pyridin-5-ol): much less effective in the same assay system
- quenching of lipid peroxidation (retention of C11-BODIPY581/591 fluorescence) ([5]; listed as Compound C redox core): less effective than compound C itself
- protection against ROS production (DCF fluorescence) (CEM cells [1]): no protection
- maintaining cell viability (trypan blue exclusion) (CEM cells [2]): quite ineffective
- maintaining cell viability (Live/Dead kit, flow cytometry) (Human CEM leukemia cells): quite ineffective
- protection against lipid peroxidation in cells (C11-BODIPY581/591 green fluorescence) (CEM leukemia cells [3]): no protection

SMILES: Cc1nc(N(C)C)nc(C)c1O [compound 12, 2-N,N-dimethylamino-5-hydroxy-4,6-dimethylpyrimidine]
- quenching of lipid peroxidation (retention of C11-BODIPY581/591 fluorescence) [5]: less active than its counterpart compound A

SMILES: CCCCCc1nc(N(C)C)nc(C)c1O [Compound H, 2-(dimethylamino)-4-methyl-6-pentylpyrimidin-5-ol]
- melting point: 61 to 62 °C

SMILES: CCCCCCCCCCCCCCCCc1nc(N(C)C)nc(C)c1O [Compound J, 2-(dimethylamino)-4-hexadecyl-6-methylpyrimidin-5-ol]
- suppression of ROS (DCFH-DA) (CEM cells [1]): most effective compounds at suppressing ROS in this assay; also recorded: especially effective
- melting point: 86 to 87 °C

SMILES: COc1cc(C)c(O)c(CCCCCCCCCCO)n1 [Compound F, 2-(10-hydroxydecyl)-6-methoxy-4-methylpyridin-3-ol]
- melting point: 80 to 81 °C
